# From patent US20050009840A1 (SUGEN, INC., priority 2003, published 2005)
# Target: T1, Met kinase domain (GST fusion protein) (Homo sapiens, UniProt P08581)
# T1 construct: Purified GST fusion protein containing the Met kinase domain
# Assay: Met transphosphorylation assay (ELISA, poly(glu-tyr) substrate);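 note: Cell-free ELISA with plate-bound poly(Glu:Tyr 4:1) phosphorylated by GST-fused Met kinase domain plus ATP and Mn2+, phosphotyrosine detected by anti-phosphotyrosine antibody with HRP and ABTS read-out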
# Type: biochemical
# Conditions: plain numbers in column Met IC50 (μM) of Table 2; read-out: Met IC50
# T1 sequence (P08581 1078-1345 limits assumed): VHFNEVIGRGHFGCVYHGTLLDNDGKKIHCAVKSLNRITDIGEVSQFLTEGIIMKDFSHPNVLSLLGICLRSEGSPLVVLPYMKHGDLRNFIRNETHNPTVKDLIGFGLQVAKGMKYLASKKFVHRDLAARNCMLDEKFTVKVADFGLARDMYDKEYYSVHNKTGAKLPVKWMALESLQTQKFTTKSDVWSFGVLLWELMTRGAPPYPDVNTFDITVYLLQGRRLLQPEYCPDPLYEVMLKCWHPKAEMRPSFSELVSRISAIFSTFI
row,IC50 [µM],Structure (SMILES)
1,0.011,"CC(Oc1cc(C#CCNC(=O)CN2CC[C@@H](O)C2)cnc1N)c1c(Cl)ccc(F)c1Cl (stereo partly drawn) [Example I-427, N-(3-{6-Amino-5-[1-(2,6-dichloro-3-fluoro-phenyl)-ethoxy]-pyridin-3-yl}-prop-2-ynyl)-2-((R)-3-hydroxy-pyrrolidin-1-yl)-acetamide]"
2,0.012,"CC(Oc1cc(C#CCNC(=O)CN2CCC(O)CC2)cnc1N)c1c(Cl)ccc(F)c1Cl (stereo not shown) [Example I-428, N-(3-{6-Amino-5-[1-(2,6-dichloro-3-fluoro-phenyl)-ethoxy]-pyridin-3-yl}-prop-2-ynyl)-2-(4-hydroxy-piperidin-1-yl)-acetamide]"
3,0.022,"CC(Oc1cc(C#CCNC(=O)CN(C)C)cnc1N)c1c(Cl)ccc(F)c1Cl (stereo not shown) [Example I-429, N-(3-{6-Amino-5-[1-(2,6-dichloro-3-fluoro-phenyl)-ethoxy]-pyridin-3-yl}-prop-2-ynyl)-2-dimethylamino-acetamide]"
4,0.013,"CCN(CC)CC(=O)NCC#Cc1cnc(N)c(OC(C)c2c(Cl)ccc(F)c2Cl)c1 (stereo not shown) [Example I-430, N-(3-{6-Amino-5-[1-(2,6-dichloro-3-fluoro-phenyl)-ethoxy]-pyridin-3-yl}-prop-2-ynyl)-2-diethylamino-acetamide]"
5,0.027,"CC(=O)N1CCN(CC(=O)NCC#Cc2cnc(N)c(OC(C)c3c(Cl)ccc(F)c3Cl)c2)CC1 (stereo not shown) [Example I-431, 2-(4-Acetyl-piperazin-1-yl)-N-(3-{6-amino-5-[1-(2,6-dichloro-3-fluoro-phenyl)-ethoxy]pyridin-3-yl}-prop-2-ynyl)-acetamide]"
6,> 20,"Nc1ncc(-c2ccccn2)cc1OCc1ccccc1 [Example I-488, 5′-Benzyloxy-[2,3′]bipyridinyl-6′-ylamine]"
7,> 20,"Nc1ncc(-c2cncnc2)cc1OCc1ccccc1 [Example I-490, 3-Benzyloxy-5-pyrimidin-5-yl-pyridin-2-ylamine]"
8,> 20,"Nc1ccc(-c2cnc(N)c(OCc3ccccc3)c2)cn1 [Example I-491, 5-Benzyloxy-[3,3′]bipyridinyl-6,6′-diamine]"
9,8.24,"Nc1ncc(-c2ccccn2)cc1OCc1ccccc1Cl [Example I-492, 5′-(2-Chloro-benzyloxy)-[2,3′]bipyridinyl-6′-ylamine]"
10,4.6,Nc1ncc(-c2cccnc2)cc1OCc1ccccc1Cl [Example I-493]
11,19.3,"Nc1ncc(-c2cncnc2)cc1OCc1ccccc1Cl [Example I-494, 3-(2-Chloro-benzyloxy)-5-pyrimidin-5-yl-pyridin-2-ylamine]"
12,4.31,"Nc1ccc(-c2cnc(N)c(OCc3ccccc3Cl)c2)cn1 [Example I-495, 5-(2-Chloro-benzyloxy)-[3,3′]bipyridinyl-6,6′-diamine]"
13,14,"Nc1ncc(-c2ccccn2)cc1OCc1ccc(Cl)cc1 [Example I-496, 5′-(4-Chloro-benzyloxy)-[2,3′]bipyridinyl-6′-ylamine]"
14,14.1,"Nc1ncc(-c2cccnc2)cc1OCc1ccc(Cl)cc1 [Example I-497, 5-(4-Chloro-benzyloxy)-[3,3′]bipyridinyl-6-ylamine]"
15,> 20,"Nc1ncc(-c2cncnc2)cc1OCc1ccc(Cl)cc1 [Example I-498, 3-(4-Chloro-benzyloxy)-5-pyrimidin-5-yl-pyridin-2-ylamine]"
16,> 20,"Nc1ccc(-c2cnc(N)c(OCc3ccc(Cl)cc3)c2)cn1 [Example I-499, 5-(4-Chloro-benzyloxy)-[3.3═]bipyridinyl-6,6′-diamine]"
17,0.211,"Nc1ncc(-c2ccncc2)cc1OCc1c(F)ccc(F)c1Cl [Example I-502, 5-(2-Chloro-3,6-difluoro-benzyloxy)-[3,4′]bipyridinyl-6-ylamine]"
18,2.15,"Nc1ncc(-c2cncnc2)cc1OCc1c(F)ccc(F)c1Cl [Example I-503, 3-(2-Chloro-3,6-dlfluoro-benzyloxy)-5-pyrimidin-5-yl-pyridin-2-ylamine]"
19,0.209,"Nc1ccc(-c2cnc(N)c(OCc3c(F)ccc(F)c3Cl)c2)cn1 [Example I-504, 5-(2-Chloro-3,6-difluoro-benzyloxy)-[3,3′]bipyridinyl-6,6′-diamine]"
20,2.71,"Nc1ncc(-c2cccnc2)cc1OCc1c(Cl)cccc1Cl [Example I-506, 5-(2,6-Dichloro-benzyloxy)-[3,3′]bipyridinyl-6-ylamine]"

row,IC50 [µM],Structure (SMILES)
1,1.3,"Nc1ncc(-c2ccncc2)cc1OCc1c(Cl)cccc1Cl [Example I-507, 5-(2,6-Dichloro-benzyloxy)-[3,4′]bipyridinyl-6-ylamine]"
2,10.3,"Nc1ncc(-c2cncnc2)cc1OCc1c(Cl)cccc1Cl [Example I-508, 3-(2,6-Dichloro-benzyloxy)-pyrimidin-5-yl-pyridin-2-ylamine]"
3,0.578,"Nc1ccc(-c2cnc(N)c(OCc3c(Cl)cccc3Cl)c2)cn1 [Example I-509, 5-(2,6-Dichloro-benzyloxy)-[3,3′]bipyridinyl-6,6′-diamine]"
4,0.0167,"CC(Oc1cc(-c2ccc(N)nc2)cnc1N)c1c(Cl)ccc(F)c1Cl (stereo not shown) [Example I-510, 5-[1-(2,6-Dichloro-3-fluoro-phenyl)-ethoxy]-[3,3′]bipyridinyl-6,6′-diamine]"
5,0.0742,"CC(Oc1cc(-c2cc(C(=O)N3CCN(C)CC3)ccn2)cnc1N)c1c(Cl)ccc(F)c1Cl (stereo not shown) [Example I-511, {6′-Amino-5′-[1-(2,6-dichloro-3-fluoro-phenyl)-ethoxy]-[2,3′]bipyridinyl-4-yl}-(4-methyl-piperazin-1-yl)-methanone]"
6,0.0629,"CC(Oc1cc(-c2cccc(C(=O)N3CCN(C)CC3)n2)cnc1N)c1c(Cl)ccc(F)c1Cl (stereo not shown) [Example I-512, {6′-Amino-5′-[1-(2,6-dichloro-3-fluoro-phenyl)-ethoxy]-[2,3′]bipyridinyl-6-yl}-(4-methyl-piperazin-1-yl)-methanone]"
7,0.034,"CC(Oc1cc(-c2cncc(C(=O)N3CCN(C)CC3)c2)cnc1N)c1c(Cl)ccc(F)c1Cl (stereo not shown) [Example I-513, {6′-Amino-5′-[1-(2,6-dichloro-3-fluoro-phenyl)-ethoxy]-[3,3′]bipyridinyl-5-yl}-(4-methyl-piperazin-1-yl)-methanone]"
8,0.0213,"CC(Oc1cc(-c2ccc(C(=O)N3CCN(C)CC3)nc2)cnc1N)c1c(Cl)ccc(F)c1Cl (stereo not shown) [Example I-514, {6′-Amino-5′-[1-(2,6-dichloro-3-fluoro-phenyl)-ethoxy]-[3,3′]bipyridinyl-6-yl}-(4-methyl-piperazin-1-yl)-methanone]"
9,0.0387,"CC(Oc1cc(-c2ccnc(C(=O)N3CCN(C)CC3)c2)cnc1N)c1c(Cl)ccc(F)c1Cl (stereo not shown) [Example I-515, {6-Amino-5-[1-(2,6-dichloro-3-fluoro-phenyl)-ethoxy]-[3,4′]bipyridinyl-2′-yl}-(4-methyl-piperazin-1-yl)-methanone]"
10,0.0393,"CC(Oc1cc(-c2ccc(N)nc2)cnc1N)c1c(F)ccc(F)c1Cl (stereo not shown) [Example I-516, 5-[1-(2-Chloro-3,6-difluoro-phenyl)-ethoxy]-[3,3′]bipyridinyl-6,6′-diamine]"
11,0.209,"CC(Oc1cc(-c2cc(C(=O)N3CCN(C)CC3)ccn2)cnc1N)c1c(F)ccc(F)c1Cl (stereo not shown) [Example I-518, {6′-Amino-5′-[1-(2-chloro-3,6-difluoro-phenyl)-ethoxy]-[2,3′]bipyridinyl-4-yl}-(4-methyl-piperazin-1-yl)-methanone]"
12,0.466,"CC(Oc1cc(-c2cccc(C(=O)N3CCN(C)CC3)n2)cnc1N)c1c(F)ccc(F)c1Cl (stereo not shown) [Example I-519, {6′-Amino-5′-[1-(2-chloro-3,6-difluoro-phenyl)-ethoxy]-[2,3′]bipyridinyl-6-yl}-(4-methyl-piperazin-1-yl)-methanone]"
13,0.134,"CC(Oc1cc(-c2cncc(C(=O)N3CCN(C)CC3)c2)cnc1N)c1c(F)ccc(F)c1Cl (stereo not shown) [Example I-520, {6′-Amino-5′-[1-(2-chloro-3,6-difluoro-phenyl)-ethoxy]-[3,3′]bipyridinyl-5-yl}-(4-methyl-piperazin-1-yl)-methanone]"
14,0.0716,"CC(Oc1cc(-c2ccc(C(=O)N3CCN(C)CC3)nc2)cnc1N)c1c(F)ccc(F)c1Cl (stereo not shown) [Example I-521, {6′-Amino-5′-[1-(2-chloro-3,6-difluoro-phenyl)-ethoxy]-[3,3′]bipyridinyl-6-yl}-(4-methyl-piperazin-1-yl)-methanone]"
15,0.0626,CC(Oc1cc(-c2ccnc(C(=O)N3CCN(C)CC3)c2)cnc1N)c1c(F)ccc(F)c1Cl (stereo not shown) [Example I-522]
16,0.0677,"CC(Oc1cc(-c2ccccn2)cnc1N)c1c(Cl)ccc(F)c1Cl (stereo not shown) [Example I-523, 5′-[1-(2,6-Dichloro-3-fluoro-phenyl)-ethoxy]-[2,3′]bipyridinyl-6′-ylamine]"
17,0.612,"CC(Oc1cc(-c2ccccn2)cnc1N)c1c(F)ccc(F)c1Cl (stereo not shown) [Example I-524, 5′-[1-(2-Chloro-3,6-difluoro-phenyl)-ethoxy]-[2,3′]bipyridinyl-6′-ylamine]"
18,0.552,"CC(Oc1cc(-c2cncnc2)cnc1N)c1c(F)ccc(F)c1Cl (stereo not shown) [Example I-526, 3-[1-(2-Chloro-3,6-difluoro-phenyl)-ethoxy]-5-pyrimidin-5-yl-pyridin-2-ylamine]"
19,0.0385,"CC(Oc1cc(-c2ccc(C(=O)N3CCN(C)CC3)cn2)cnc1N)c1c(Cl)ccc(F)c1Cl (stereo not shown) [Example I-527, {6′-Amino-5′-[1-(2,6-dichloro-3-fluoro-phenyl)-ethoxy]-[2,3′]bipyridinyl-5-yl}(4-methyl-piperazin-1-yl)-methanone]"
20,0.0659,"CC(Oc1cc(-c2ccncc2)cnc1N)c1c(F)ccc(F)c1Cl (stereo not shown) [Example I-528, 5-[1-(2-Chloro-3,6-difluoro-phenyl)-ethoxy]-[3,4′]bipyridinyl-6-ylamine]"

row,Structure (SMILES),IC50 [µM]
1,"Nc1ncc(-c2ccccn2)cc1OCc1c(F)ccc(F)c1Cl [Example I-500, 5′-(2-Chloro-3,6-difluoro-benzyloxy)-[2,3′]bipyridinyl-6′-ylamine]",1.8
2,"Nc1ncc(-c2ccccn2)cc1OCc1c(Cl)cccc1Cl [Example I-505, 5-′(2,6-Dichloro-benzyloxy)-[2,3′]bipyridinyl-6′-ylamine]",2.84
3,"CC(Oc1cc(-c2cccnc2)cnc1N)c1c(F)ccc(F)c1Cl (stereo not shown) [Example I-525, 5-[1-(2-Chloro-3,6-difluoro-phenyl)-ethoxy]-[3,3′]bipyridinyl-6-ylamine]",0.0777
